Test results: the NIST ThermoML archive (doi:10.1016/j.fluid.2006.03.009)
Numbers after ± are expanded uncertainties.

Details: Liquid

Row | Compound | vapor or sublimation pressure (273.15 K) [kPa] | vapor or sublimation pressure (278.15 K) [kPa] | vapor or sublimation pressure (283.15 K) [kPa] | vapor or sublimation pressure (293.15 K) [kPa] | vapor or sublimation pressure (303.15 K) [kPa] | vapor or sublimation pressure (313.15 K) [kPa]
1 | CCC [propane] | 474 ± 2.6 | 550.8 ± 2.8 | 636 ± 2.9 | 836.2 ± 3.4 | 1077.6 ± 4 | 1368 ± 4.7
2 | C=CC [propene] | 586 ± 2.8 | 678.5 ± 3 | 780.8 ± 3.3 | 1019 ± 3.8 | 1307.6 ± 4.6 | 1652.2 ± 5.6
